ChEMBL document CHEMBL1201862, “PubChem BioAssay data set” (2004)
Blank lines part the entries; values can stand above or below the compound they belong to. Activity calls are given as the source filed them.

How the values were obtained:
[1] = molecular target: Intestinal-type alkaline phosphatase (Mus musculus, UniProt P24822); assay: PubChem AID 488785; assay type: functional
[2] = molecular target: T1, Alkaline phosphatase, tissue-nonspecific isozyme (Homo sapiens, UniProt P05186); assay: TNAP enzyme inhibition by screening hits, dose response, selectivity assay for mouse IAP inhibitor project, biochemical, human TNAP, uHTS hits (AID 488906); assay type: functional
T1 sequence (P05186 whole entry): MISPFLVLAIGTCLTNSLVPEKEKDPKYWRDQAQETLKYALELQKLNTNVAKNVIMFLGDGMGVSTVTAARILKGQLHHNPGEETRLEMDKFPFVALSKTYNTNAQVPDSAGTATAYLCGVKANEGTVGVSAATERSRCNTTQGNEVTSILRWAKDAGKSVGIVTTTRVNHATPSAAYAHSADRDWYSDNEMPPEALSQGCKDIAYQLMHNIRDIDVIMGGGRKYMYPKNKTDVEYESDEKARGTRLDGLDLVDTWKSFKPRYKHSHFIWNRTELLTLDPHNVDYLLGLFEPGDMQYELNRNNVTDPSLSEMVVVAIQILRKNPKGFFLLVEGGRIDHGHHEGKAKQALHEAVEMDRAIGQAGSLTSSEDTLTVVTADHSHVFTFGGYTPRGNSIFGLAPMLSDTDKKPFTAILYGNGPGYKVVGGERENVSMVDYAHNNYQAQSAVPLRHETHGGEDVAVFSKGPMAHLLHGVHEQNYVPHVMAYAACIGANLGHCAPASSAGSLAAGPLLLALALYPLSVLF

[3] = molecular target: Intestinal-type alkaline phosphatase (Homo sapiens, UniProt P09923); assay: inhibition of human intestinal alkaline phosphatase – biochemical, dose response (AID 488876); assay type: functional
Chain of Intestinal-type alkaline phosphatase (Homo sapiens, UniProt P09923) (P09923 whole entry): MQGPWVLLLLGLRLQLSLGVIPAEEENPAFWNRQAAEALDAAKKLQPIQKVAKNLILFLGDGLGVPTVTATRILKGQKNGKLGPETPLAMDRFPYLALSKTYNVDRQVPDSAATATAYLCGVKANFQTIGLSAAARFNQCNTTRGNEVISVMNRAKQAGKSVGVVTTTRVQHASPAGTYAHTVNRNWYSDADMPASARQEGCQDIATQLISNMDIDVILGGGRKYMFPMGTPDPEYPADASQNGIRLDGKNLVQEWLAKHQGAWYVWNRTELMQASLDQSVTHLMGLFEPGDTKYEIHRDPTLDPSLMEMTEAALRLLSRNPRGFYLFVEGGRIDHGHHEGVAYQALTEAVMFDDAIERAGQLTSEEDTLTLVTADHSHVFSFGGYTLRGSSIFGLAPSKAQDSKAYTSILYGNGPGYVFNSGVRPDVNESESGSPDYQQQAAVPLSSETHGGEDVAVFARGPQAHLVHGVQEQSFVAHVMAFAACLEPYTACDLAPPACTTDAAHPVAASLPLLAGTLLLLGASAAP

Vero = assay: viability of Vero cells under compound – cytotoxicity control for flavivirus capping enzyme inhibitors (AID 588742); assay type: functional; details: Chlorocebus sabaeus
[4] = molecular target: T2, Kappa-type opioid receptor (Homo sapiens, UniProt P41145); assay: kappa opioid receptor activation by imaging – image-based, set 3, SAR follow-up (AID 488833); assay type: functional
T2 sequence (P41145 whole entry): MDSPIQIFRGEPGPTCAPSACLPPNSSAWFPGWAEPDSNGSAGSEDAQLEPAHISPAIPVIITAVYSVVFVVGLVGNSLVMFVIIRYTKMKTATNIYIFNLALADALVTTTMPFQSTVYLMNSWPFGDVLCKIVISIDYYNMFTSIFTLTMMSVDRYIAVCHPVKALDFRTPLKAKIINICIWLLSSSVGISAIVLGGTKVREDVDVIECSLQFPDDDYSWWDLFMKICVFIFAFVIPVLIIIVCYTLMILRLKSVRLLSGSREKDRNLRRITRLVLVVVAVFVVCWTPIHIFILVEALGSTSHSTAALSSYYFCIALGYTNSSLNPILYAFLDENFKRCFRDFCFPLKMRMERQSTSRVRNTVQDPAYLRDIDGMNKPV

Mu-type opioid receptor = Mu-type opioid receptor (Homo sapiens, UniProt P35372); assay: SAR Analysis of Agonists of the MOR Receptor using an Image-Based Assay - Set 3. [Related pubchem assays (depositor defined):AID1777, AID1785, AID1786, AID1966, AID2133, AID2136, AID2284, AID2285, AID2352]; assay type: functional
Chain of Mu-type opioid receptor (P35372 whole entry): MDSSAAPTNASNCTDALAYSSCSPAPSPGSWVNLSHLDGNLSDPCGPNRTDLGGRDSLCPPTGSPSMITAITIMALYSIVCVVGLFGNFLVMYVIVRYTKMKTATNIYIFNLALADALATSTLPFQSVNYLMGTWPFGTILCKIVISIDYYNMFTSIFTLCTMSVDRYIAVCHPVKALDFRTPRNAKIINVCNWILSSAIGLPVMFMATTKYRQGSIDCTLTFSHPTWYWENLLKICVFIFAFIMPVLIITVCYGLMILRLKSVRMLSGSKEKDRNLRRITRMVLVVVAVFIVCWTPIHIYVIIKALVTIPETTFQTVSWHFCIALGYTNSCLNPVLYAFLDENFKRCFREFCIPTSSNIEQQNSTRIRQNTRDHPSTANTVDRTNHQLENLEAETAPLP

[5] = molecular target: Delta-type opioid receptor (Homo sapiens, UniProt P41143); assay: SAR Analysis of Agonists of the DOR Receptor using an Image-Based Assay - Set 3. [Related pubchem assays (depositor defined):AID1777, AID1786]; assay type: functional
Chain of Delta-type opioid receptor (P41143 whole entry): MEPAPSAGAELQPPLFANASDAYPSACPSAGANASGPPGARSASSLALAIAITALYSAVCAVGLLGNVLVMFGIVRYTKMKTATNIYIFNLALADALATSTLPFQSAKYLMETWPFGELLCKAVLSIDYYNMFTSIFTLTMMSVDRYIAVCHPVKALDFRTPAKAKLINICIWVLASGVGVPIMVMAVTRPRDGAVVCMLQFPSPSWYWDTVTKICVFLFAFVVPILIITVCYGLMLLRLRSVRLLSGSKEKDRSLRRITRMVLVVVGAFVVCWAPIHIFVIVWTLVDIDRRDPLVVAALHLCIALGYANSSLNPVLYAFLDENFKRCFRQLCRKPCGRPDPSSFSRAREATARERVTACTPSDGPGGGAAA

[6] = molecular target: T2, Kappa-type opioid receptor; assay: SAR analysis of small molecule agonists of the kappa opioid receptor via a luminescent beta-arrestin assay - Set 3. [Related pubchem assays (depositor defined):AID1777, AID1785, AID1786, AID1966, AID2133, AID2136, AID2284, AID2500]; assay type: functional
[7] = molecular target: T3, G-protein coupled receptor 55 (Homo sapiens, UniProt Q9Y2T6); assay: blockers of GPR55 signalling, imaged – imaging, image-based, counter-screen for GPR35 antagonist project, SAR follow-up (AID 2397); assay type: functional
T3 sequence (Q9Y2T6 whole entry): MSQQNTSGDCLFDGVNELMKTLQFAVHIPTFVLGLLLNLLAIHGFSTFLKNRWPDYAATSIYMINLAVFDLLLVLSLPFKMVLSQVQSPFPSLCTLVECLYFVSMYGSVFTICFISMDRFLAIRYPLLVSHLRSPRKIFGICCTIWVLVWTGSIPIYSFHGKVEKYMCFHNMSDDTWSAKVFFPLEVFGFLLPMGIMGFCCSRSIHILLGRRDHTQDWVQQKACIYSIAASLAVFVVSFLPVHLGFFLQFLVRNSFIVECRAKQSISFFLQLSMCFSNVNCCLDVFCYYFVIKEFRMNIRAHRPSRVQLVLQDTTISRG

BJ [8] = assay: BJ-TERT fibroblast viability loss – cell-based, RAS-independent, luminescence, dose response (AID 1933); assay type: functional; details: Homo sapiens
BJ [9] = assay: cells; assay type: functional, cell-based; details: Homo sapiens
BJ [10] = assay: BJ-TERT-LT-ST fibroblast viability loss – cell-based, RAS-independent, luminescence, dose response (AID 1935); assay type: functional; details: Homo sapiens;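 further: BJ fibroblasts immortalized with TERT plus LT and ST oncogenes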
[11] = DRD fibroblast viability loss – cell-based, non-viral oncogenic, luminescence, dose response (AID 1934); assay type: functional; details: Homo sapiens
[12] = molecular target: T3, G-protein coupled receptor 55; assay: selective activators of receptor GPR55 – imaging, U2OS cells, beta-arrestin-GFP redistribution, primary screen (AID 1961); assay type: functional
Cannabinoid receptor 2 [13] = molecular target: T4, Cannabinoid receptor 2 (Homo sapiens, UniProt P34972); assay: SAR analysis of antagonists of the Cannabinoid Receptor 2 using an Image-Based Assay - Set 2. [Related pubchem assays (depositor defined):AID1961, AID1965]; assay type: functional
T4 sequence (P34972 whole entry): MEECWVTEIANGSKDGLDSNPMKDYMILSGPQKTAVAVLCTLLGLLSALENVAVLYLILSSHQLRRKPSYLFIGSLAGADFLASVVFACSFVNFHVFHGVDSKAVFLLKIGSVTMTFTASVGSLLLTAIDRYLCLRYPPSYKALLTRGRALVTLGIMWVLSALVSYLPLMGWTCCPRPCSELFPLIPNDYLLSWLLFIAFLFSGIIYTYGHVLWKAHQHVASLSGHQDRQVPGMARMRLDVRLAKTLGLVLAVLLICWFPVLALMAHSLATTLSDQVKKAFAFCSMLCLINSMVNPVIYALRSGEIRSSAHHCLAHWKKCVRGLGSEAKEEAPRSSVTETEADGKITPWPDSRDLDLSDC

[14] = Luminescence Cell-Based Dose Retest to Confirm Inhibitors of Cancer Stem Cells. [Related pubchem assays (depositor defined):AID2717, AID2721]; assay type: functional; details: Homo sapiens
Cannabinoid receptor 2 [15] = molecular target: T4, Cannabinoid receptor 2; assay: SAR analysis of agonists of the Cannabinoid Receptor 2 using an Image-Based Assay - Set 2. [Related pubchem assays (depositor defined):AID1961, AID1965]; assay type: functional
[16] = molecular target: T3, G-protein coupled receptor 55; assay: SAR analysis of selective Agonists of GPR55 using an Image-Based Assay. [Related pubchem assays (depositor defined):AID1961, AID1965]; assay type: functional
Cannabinoid receptor 1 = Cannabinoid receptor 1 (Homo sapiens, UniProt P21554); assay: SAR analysis of antagonists of the Cannabinoid Receptor 1 using an Image-Based Assay. [Related pubchem assays (depositor defined):AID1961, AID1965]; assay type: functional
Chain of Cannabinoid receptor 1 (P21554 whole entry): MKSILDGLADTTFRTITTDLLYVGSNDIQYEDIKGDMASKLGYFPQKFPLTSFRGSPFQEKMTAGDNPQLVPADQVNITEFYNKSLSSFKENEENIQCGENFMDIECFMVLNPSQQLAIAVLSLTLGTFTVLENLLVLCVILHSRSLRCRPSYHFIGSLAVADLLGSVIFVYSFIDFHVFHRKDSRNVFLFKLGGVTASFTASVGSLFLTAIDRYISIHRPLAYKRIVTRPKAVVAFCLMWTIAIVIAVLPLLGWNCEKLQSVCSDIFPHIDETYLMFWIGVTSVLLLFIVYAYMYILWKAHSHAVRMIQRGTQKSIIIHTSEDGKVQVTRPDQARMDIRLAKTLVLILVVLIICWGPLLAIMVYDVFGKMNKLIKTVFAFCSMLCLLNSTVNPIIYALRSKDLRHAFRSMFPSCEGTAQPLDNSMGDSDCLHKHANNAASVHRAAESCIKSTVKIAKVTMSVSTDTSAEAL
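Wherever AC50 is given: cells exposed to compound for roughly 70 hours or longer before luminescence read.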

Chain of Intestinal-type alkaline phosphatase (Mus musculus, UniProt P24822) (P24822 whole entry): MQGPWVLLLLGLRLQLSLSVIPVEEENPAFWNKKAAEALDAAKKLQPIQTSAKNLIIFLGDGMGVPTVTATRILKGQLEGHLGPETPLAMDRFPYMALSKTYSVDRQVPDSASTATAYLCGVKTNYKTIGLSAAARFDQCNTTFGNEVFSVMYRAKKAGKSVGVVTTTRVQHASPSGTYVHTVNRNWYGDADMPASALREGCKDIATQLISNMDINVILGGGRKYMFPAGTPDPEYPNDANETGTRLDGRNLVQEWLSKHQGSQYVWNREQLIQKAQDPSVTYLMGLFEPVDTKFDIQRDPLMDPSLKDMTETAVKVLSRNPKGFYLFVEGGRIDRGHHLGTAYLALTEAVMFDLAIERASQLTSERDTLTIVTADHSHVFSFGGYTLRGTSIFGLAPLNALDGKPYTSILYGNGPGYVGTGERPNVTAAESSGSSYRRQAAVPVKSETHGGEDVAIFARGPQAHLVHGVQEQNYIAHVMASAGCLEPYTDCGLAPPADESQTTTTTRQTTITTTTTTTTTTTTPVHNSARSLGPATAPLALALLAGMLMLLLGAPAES

IC50 [1]: 4.77 µM (active) | IC50 [2]: 77.1 µM (active) | IC50 [3]: > 100 µM (inactive)
Compound: CCOC(=O)C1=C(C)N=c2s/c(=C/c3cccc([N+](=O)[O-])c3O)c(=O)n2C1c1ccc(OC)cc1OC (centres undefined)
CC50 (Vero): 39.4 µM (active)

EC50 [4]: 3.58 µM (active) | EC50 (Mu-type opioid receptor): > 32 µM (inactive) | EC50 [5]: > 32 µM (inactive) | EC50 [6]: 7.2 µM (active)
Compound: Fc1cc(F)cc(CSc2nnc(-c3ccccn3)n2Cc2cccs2)c1

IC50 [7]: > 32 µM (inactive)
Compound: Fc1ccc(N2CCN(c3ncnc4c3cnn4Cc3ccc(Cl)cc3Cl)CC2)cc1

Compound: Cc1occc1C(=O)Nc1ccc(OCc2ccccc2)cc1
EC50 (BJ [8]): 11.4 µM (active) | EC50 (BJ [9]): 9.33 µM (active) | EC50 (BJ [10]): > 150 µM (inconclusive) | EC50 [11]: 9.29 µM (active) | EC50 [12]: 0.866 µM (active) | IC50 (Cannabinoid receptor 2 [13]): > 32 µM (inactive) | AC50 [14]: 5.34 µM (active) | EC50 (Cannabinoid receptor 2 [15]): > 32 µM (inactive) | EC50 [16]: 0.544 µM (active) | IC50 (Cannabinoid receptor 1): > 32 µM (inactive)
